Results published in patent publication US20230330045A1 (priority 2020, published 2023).

Molecular target: eel acetylcholinesterase (AChE) (Electrophorus electricus, UniProt O42275)
Assay: Eel AChE fluorescence assay (AMPLEX Red kit)
Type: biochemical
Details: read-out: inhibition of enzyme activity compared to DMSO control (screen)
Method: Enzymatic reactions consisted of 50 μM acetylcholine, 200 μM AIVIPLEX™ Red reagent, 1 U/mL horseradish peroxidase, 0.1 U/mL choline oxidase and 0.096 U/mL acetylcholinesterase, with 30 1% DMSO. […] Control reactions lacking acetylcholinesterase but containing 5 μM H2O2 in presence of compounds were analyzed at the same wavelength to exclude compounds that display assay interference. Dose-response curves were performed in duplicate.

eel acetylcholinesterase (AChE), sequence (O42275 24-633): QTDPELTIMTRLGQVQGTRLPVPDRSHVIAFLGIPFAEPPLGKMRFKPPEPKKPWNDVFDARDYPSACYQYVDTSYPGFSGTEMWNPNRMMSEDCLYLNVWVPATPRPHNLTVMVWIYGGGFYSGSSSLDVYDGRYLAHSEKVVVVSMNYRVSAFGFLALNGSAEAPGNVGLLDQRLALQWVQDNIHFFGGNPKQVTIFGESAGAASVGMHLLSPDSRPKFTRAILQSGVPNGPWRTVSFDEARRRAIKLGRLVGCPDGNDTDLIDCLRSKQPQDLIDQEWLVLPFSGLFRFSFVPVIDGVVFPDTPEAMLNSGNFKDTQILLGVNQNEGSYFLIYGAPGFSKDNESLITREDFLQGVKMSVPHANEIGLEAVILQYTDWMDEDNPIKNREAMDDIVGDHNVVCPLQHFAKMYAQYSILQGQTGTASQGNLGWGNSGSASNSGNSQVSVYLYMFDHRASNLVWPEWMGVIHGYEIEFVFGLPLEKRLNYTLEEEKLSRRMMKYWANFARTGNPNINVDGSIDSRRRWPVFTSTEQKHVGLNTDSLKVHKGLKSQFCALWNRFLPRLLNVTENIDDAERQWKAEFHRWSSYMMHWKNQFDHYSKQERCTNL

CO[C@H]1/C=C/O[C@@]2(C)Oc3c(C)c(O)c4c(O)c(c5c(nc6cc(C)ccn65)c4c3C2=O)NC(=O)/C(C)=C\C=C\[C@H](C)[C@H](O)[C@@H](C)[C@@H](O)[C@@H](C)[C@H](OC(C)=O)[C@@H]1C [rifaximin]
inhibition at 20 µM: ≥ 50%
